Experimental findings from PubChem BioAssay (NCI) are described below.

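Five compound concentrations were applied to cells in 96-well plates for 48 hours; endpoints were derived by simple linear interpolation of the resulting dose-response curve. TGI marks complete inhibition of growth.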

Test systems include HCT-15 colon; K-562 leukemia; CCRF-CEM leukemia; HL-60(TB) leukemia; SNB-19 CNS; HCC-2998 colon; MOLT-4 leukemia.
Common to all, as to assay: NCI-60 cell line screen, 48 h

For `COc1ccc(/C=C/C(=O)c2c(-c3ccccc3)nn(C)c(=O)c2N2CC2C)cc1` (stereo unspecified), the TGI is 80.5 µM with HCT-15 colon; above 100 µM in the experiment on K-562 leukemia; 73.9 µM in the experiment on CCRF-CEM leukemia; 60.2 µM in the experiment with HL-60(TB) leukemia; above 100 µM in the experiment on SNB-19 CNS; 66.6 µM in the experiment with HCC-2998 colon. Besides, in the experiment with MOLT-4 leukemia, the TGI is above 100 µM.

On to `O=P(CN1CCOCC1)(c1ccccc1)c1ccccc1`, for which the TGI in the experiment on HCT-15 colon, with K-562 leukemia, in the experiment on CCRF-CEM leukemia, in the experiment on HL-60(TB) leukemia, in the experiment on SNB-19 CNS and in the experiment on MOLT-4 leukemia was above 100 µM throughout.

For the compound `O=C(/C=C/c1ccccc1)c1ccc(Cl)cc1Cl`, the TGI with HCT-15 colon is 26.4 µM; in the experiment on K-562 leukemia, 30.1 µM; in the experiment with CCRF-CEM leukemia it was 33.1 µM; in the experiment on HL-60(TB) leukemia, 36.2 µM; with SNB-19 CNS, 65.2 µM; in the experiment with HCC-2998 colon, 40.9 µM. Moreover, the TGI in the experiment with MOLT-4 leukemia was 42.9 µM.

Turning to `FC(F)(F)c1ccccc1C1SCc2nc3ccccc3n21` (stereo unspecified), the TGI with K-562 leukemia is above 100 µM; in the experiment on CCRF-CEM leukemia, above 100 µM; with HL-60(TB) leukemia, 47 µM; with SNB-19 CNS, above 100 µM; with HCC-2998 colon it was above 100 µM; with MOLT-4 leukemia, above 100 µM.

Take `Cc1cc(Cl)ccc1N=C1NC(=O)C(CC(=O)Nc2cccc(Cl)c2)S1` (stereo unspecified): the TGI in the experiment with HCT-15 colon, in the experiment with K-562 leukemia, in the experiment on CCRF-CEM leukemia, with HL-60(TB) leukemia, in the experiment on SNB-19 CNS and with HCC-2998 colon was above 100 µM throughout.

Turning to `Cc1cc(N(CCC#N)CCC#N)ccc1/C=C(\NC(=O)/C=C/c1ccccc1)C(=O)Nc1ccccc1Cl`, the TGI in the experiment with HCT-15 colon, with K-562 leukemia, in the experiment with CCRF-CEM leukemia, in the experiment with HL-60(TB) leukemia, in the experiment with SNB-19 CNS and with HCC-2998 colon was above 100 µM each time. In the experiment on MOLT-4 leukemia, this compound gave a TGI above 100 µM.

Take `COc1cc2c(oc(=O)c3c4occc4cc(OC)c23)c2cccc(O)c12`: the TGI in the experiment with HCT-15 colon, in the experiment with K-562 leukemia, in the experiment on CCRF-CEM leukemia, in the experiment with HL-60(TB) leukemia, in the experiment with SNB-19 CNS and in the experiment on HCC-2998 colon was above 100 µM each time. In addition, the TGI in the experiment on MOLT-4 leukemia is above 100 µM.

As to `O=C(N/C(=C\c1ccc([N+](=O)[O-])cc1)c1nc2ccccc2s1)c1ccccc1`, the TGI is above 100 µM in the experiment with HCT-15 colon; 59.2 µM with K-562 leukemia; 66.3 µM in the experiment with CCRF-CEM leukemia; above 100 µM in the experiment with SNB-19 CNS; above 100 µM with HCC-2998 colon; 48 µM with MOLT-4 leukemia.

Consider `CCOc1ccc(C2=NN(CC)C(=O)C(C3C(=O)N(c4ccccc4)N=C3C)C2)cc1` (stereo unspecified), for which the TGI in the experiment on HCT-15 colon, in the experiment with K-562 leukemia, in the experiment with CCRF-CEM leukemia, in the experiment with HL-60(TB) leukemia, with SNB-19 CNS and with HCC-2998 colon was above 100 µM each time. The TGI with MOLT-4 leukemia was above 100 µM.

Turning to `CC1NOC(=O)C1N=Nc1cccc(Cl)c1` (stereo unspecified), the TGI in the experiment on HCT-15 colon was 42.6 µM; in the experiment with K-562 leukemia, above 100 µM; with CCRF-CEM leukemia, 57.7 µM; with HL-60(TB) leukemia, 56.8 µM; in the experiment on SNB-19 CNS, above 100 µM; with HCC-2998 colon it was above 100 µM. The TGI in the experiment with MOLT-4 leukemia worked out at 86.7 µM.

Take `COC(=O)C1=NC(=S)NC(c2ccccc2)C1c1nc2ccccc2o1` (stereo unspecified): the TGI with HCT-15 colon, in the experiment with K-562 leukemia, in the experiment with CCRF-CEM leukemia, in the experiment on HL-60(TB) leukemia, with SNB-19 CNS and in the experiment with HCC-2998 colon was above 50 µM throughout. In the experiment with MOLT-4 leukemia, the TGI was above 50 µM.

Take `CCOc1ccc(NC(=O)CC2SC(=Nc3ccc(C)cc3)NC2=O)cc1` (stereo unspecified): the TGI with HCT-15 colon is above 100 µM; with CCRF-CEM leukemia, above 100 µM; in the experiment on SNB-19 CNS it was above 100 µM; in the experiment with MOLT-4 leukemia it was 77.6 µM.

For the compound `COC(=O)Cc1cc(=O)n2c3ccccc3n(C)c2c1C#N`, the TGI with HCT-15 colon, in the experiment with K-562 leukemia, in the experiment on HL-60(TB) leukemia, with SNB-19 CNS, in the experiment on HCC-2998 colon and with MOLT-4 leukemia was above 100 µM each time.

For `CC(=O)CCC1(c2ccccc2)OC(=O)C(C#N)=C1c1ccccc1` (stereo unspecified), the TGI with HCT-15 colon, with K-562 leukemia, with CCRF-CEM leukemia, in the experiment with SNB-19 CNS, in the experiment on HCC-2998 colon and in the experiment on MOLT-4 leukemia was above 100 µM each time.

As for `COC(=O)C(=O)C(C(=O)C(=O)Nc1ccc([N+](=O)[O-])cc1)c1nc2ccccc2[nH]c1=O` (stereo unspecified), the TGI with HCT-15 colon, in the experiment on K-562 leukemia, in the experiment with CCRF-CEM leukemia, in the experiment with HL-60(TB) leukemia, in the experiment on SNB-19 CNS and in the experiment with MOLT-4 leukemia was above 100 µM in each case.

On to `COc1ccc(/C=C/C(=N\NC(=O)c2ccccc2)c2sc(Nc3ccc([N+](=O)[O-])cc3)nc2C)cc1OC`, for which the TGI with HCT-15 colon is 28.5 µM; in the experiment with K-562 leukemia, above 100 µM; in the experiment on CCRF-CEM leukemia it was above 100 µM; in the experiment with SNB-19 CNS, 32.5 µM; in the experiment on HCC-2998 colon, above 100 µM; in the experiment with MOLT-4 leukemia, above 100 µM.
